In US11390604B2 (Hoffmann-La Roche Inc., priority 2019, dated 2022):
Where a name gives a salt, the structure may show the parent alone.

Each molecule was assayed on Acinetobacter baumannii ATCC 17961 (assay: Antimicrobial susceptibility testing: 90% growth inhibitory concentration (IC90) determination). Conditions: ATCC17961, Acinetobacter baumannii ATCC 17961, Iso-Sensitest broth, read-out: ATCC 17961 IC90.
Assay type: cell-based
Protocol: Antimicrobial Susceptibility Testing:
90% Growth Inhibitory Concentration (IC90) Determination
The in vitro antimicrobial activity of the compounds was determined according to the following procedure:
The assay used a 10-points Iso-Sensitest broth medium to measure quantitatively the in vitro activity of the compounds against Acinetobacter baumannii ATCC 17961.
Stock compounds in DMSO were serially twofold diluted (e.g. range from 50 to 0.097 μM final concentration) in 384 wells microtiter plates and inoculated with 49 μl the bacterial suspension in Iso-Sensitest medium to have a final cell concentration of ˜5×10^(5) CFU/ml in a final volume/well of 50 ul/well. Microtiter plates were incubated at 35±2° C.
Bacterial cell growth was determined with the measurement of optical density at X=600 nm each 20 minutes over a time course of 16 h. Growth inhibition was calculated during the logarithmic growth of the bacterial cells with determination of the concentration inhibiting 50% (IC50) and 90% (IC90) of the growth.
Table 1 provides the 90% growth inhibitory concentrations (IC90) in micromoles per liter of the compounds of present disclosure obtained against the strain Acinetobacter baumannii ATCC 17961.

Row | SMILES | IC90 [nM]
1 | Cn1c(-c2cn(C3CC3(F)F)nc2C(F)(F)F)cnc1C(=O)Nc1ccc(C(=O)N2C[C@H]3CNC[C@H]3C2)c(Cl)c1 (mixture of isomers) [Example 271, rac-N-(3-chloro-4-((3aR,6aS)-octahydropyrrolo[3,4-c]pyrrole-2-carbonyl)phenyl)-5-(1-(2,2-difluorocyclopropyl)-3-(trifluoromethyl)-1H-pyrazol-4-yl)-1-methyl-1H-imidazole-2-carboxamide formate] | 335
2 | Cn1c(-c2cn(CC(F)F)nc2C(F)(F)F)cnc1C(=O)Nc1ccc(S(=O)(=O)N2CCN(C(=O)N[C@@H]3CNC[C@H]3O)CC2)cc1 (racemic) [Example 279, rac-4-((4-(5-(1-(2,2-difluoroethyl)-3-(trifluoromethyl)-1H-pyrazol-4-yl)-1-methyl-1H-imidazole-2-carboxamido)phenyl)sulfonyl)-N-((3R,4R)-4-hydroxypyrrolidin-3-yl)piperazine-1-carboxamide formate] | 344
3 | CO[C@H]1CNC[C@@H]1NC(=O)c1ccc(NC(=O)c2ncc(-c3cn(C4CC4(F)F)nc3C(F)(F)F)n2C)cc1Cl (mixture of isomers) [Example 280, N-(3-chloro-4-((trans-4-methoxypyrrolidin-3-yl)carbamoyl)phenyl)-5-(1-(2,2-difluorocyclopropyl)-3-(trifluoromethyl)-1H-pyrazol-4-yl)-1-methyl-1H-imidazole-2-carboxamide formate] | 345
4 | Cn1c(-c2cn(C3CC3(F)F)nc2C(F)(F)F)cnc1C(=O)Nc1ccc(C(=O)NC2C[C@@H]3CC[C@@H](C2)N3)c(Cl)c1 (mixture of isomers) [Example 283, rac-N-(4-(((1R,3s,5S)-8-azabicyclo[3.2.1]octan-3-yl)carbamoyl)-3-chlorophenyl)-5-(1-(2,2-difluorocyclopropyl)-3-(trifluoromethyl)-1H-pyrazol-4-yl)-1-methyl-1H-imidazole-2-carboxamide formate] | 348
5 | Cn1c(-c2cn(C3CC3(F)F)nc2C(F)(F)F)cnc1C(=O)Nc1ccc(C(=O)N2C[C@H]3CN(C(=O)N[C@H]4CNC[C@@H]4O)C[C@H]3C2)c(Cl)c1 (mixture of isomers) [Example 288, rac-(3aR,6aS)-5-(2-chloro-4-(5-(1-(2,2-difluorocyclopropyl)-3-(trifluoromethyl)-1H-pyrazol-4-yl)-1-methyl-1H-imidazole-2-carboxamido)benzoyl)-N-((3R,4R)-4-hydroxypyrrolidin-3-yl)hexahydropyrrolo[3,4-c]pyrrole-2(1H)-carboxamide formate] | 354
6 | CN(C(=O)c1ccc(NC(=O)c2ncc(-c3cn(C4CC4(F)F)nc3C(F)(F)F)n2C)cc1Cl)C1CCN(C(=O)N[C@H]2C[C@@H](N)C2)CC1 (mixture of isomers) [Example 294, rac-N-((1s,3s)-3-aminocyclobutyl)-4-(2-chloro-4-(5-(1-(2,2-difluorocyclopropyl)-3-(trifluoromethyl)-1H-pyrazol-4-yl)-1-methyl-1H-imidazole-2-carboxamido)-N-methylbenzamido)piperidine-1-carboxamide formate] | 363
7 | Cn1c(-c2cn(C3CC3(F)F)nc2C(F)(F)F)cnc1C(=O)Nc1ccc(C(=O)N2CC3C(C2)C3NC(=O)N[C@H]2CNC[C@@H]2O)c(Cl)c1 (mixture of isomers) [Example 300, rac-N-(3-chloro-4-(6-(3-((3R,4R)-4-hydroxypyrrolidin-3-yl)ureido)-3-azabicyclo[3.1.0]hexane-3-carbonyl)phenyl)-5-(1-(2,2-difluorocyclopropyl)-3-(trifluoromethyl)-1H-pyrazol-4-yl)-1-methyl-1H-imidazole-2-carboxamide formate] | 367
8 | Cn1c(-c2cn(C3CC3(F)F)nc2C(F)(F)F)cnc1C(=O)Nc1ccc(C(=O)NCC2CC3CN(C(=O)N[C@H]4CNC[C@@H]4O)CC3C2)c(Cl)c1 (mixture of isomers) [Example 310, rac-5-((2-chloro-4-(5-(1-(2,2-difluorocyclopropyl)-3-(trifluoromethyl)-1H-pyrazol-4-yl)-1-methyl-1H-imidazole-2-carboxamido)benzamido)methyl)-N-((3R,4R)-4-hydroxypyrrolidin-3-yl)hexahydrocyclopenta[c]pyrrole-2(1H)-carboxamide formate] | 379
9 | Cn1c(-c2cn(C3CC3(F)F)nc2C(F)(F)F)cnc1C(=O)Nc1ccc(C(=O)N2C[C@H]3CNC[C@@H]3C2)c(Cl)c1 (mixture of isomers) [Example 329, rac-N-(3-chloro-4-((3aR,6aR)-octahydropyrrolo[3,4-c]pyrrole-2-carbonyl)phenyl)-5-(1-(2,2-difluorocyclopropyl)-3-(trifluoromethyl)-1H-pyrazol-4-yl)-1-methyl-1H-imidazole-2-carboxamide formate] | 420
10 | CN(CCCCNC(=O)c1ccc(NC(=O)c2ncc(-c3cn(C4CC4(F)F)nc3C(F)(F)F)n2C)cc1Cl)C(=O)N[C@H]1CNC[C@@H]1O (mixture of isomers) [Example 331, rac-N-(3-chloro-4-((4-(3-((3S,4S)-4-hydroxypyrrolidin-3-yl)-1-methylureido)butyl)carbamoyl)phenyl)-5-(1-(2,2-difluorocyclopropyl)-3-(trifluoromethyl)-1H-pyrazol-4-yl)-1-methyl-1H-imidazole-2-carboxamide formate] | 422
11 | Cn1c(-c2cn(C3CC3(F)F)nc2C(F)(F)F)cnc1C(=O)Nc1ccc(C(=O)NC2(C)CCN(C(=O)N[C@H]3C[C@@H](N)C3)CC2)c(Cl)c1 (mixture of isomers) [Example 333, rac-N-((1s,3s)-3-aminocyclobutyl)-4-(2-chloro-4-(5-(1-(2,2-difluorocyclopropyl)-3-(trifluoromethyl)-1H-pyrazol-4-yl)-1-methyl-1H-imidazole-2-carboxamido)benzamido)-4-methylpiperidine-1-carboxamide formate] | 422
12 | Cn1c(-c2cn(C3CC3(F)F)nc2C(F)(F)F)cnc1C(=O)Nc1ccc(C(=O)N[C@H]2C[C@H]3CC[C@@H](C2)N3)c(Cl)c1 (mixture of isomers) [Example 346, rac-N-(4-(((1R,3r,5S)-8-azabicyclo[3.2.1]octan-3-yl)carbamoyl)-3-chlorophenyl)-5-(1-(2,2-difluorocyclopropyl)-3-(trifluoromethyl)-1H-pyrazol-4-yl)-1-methyl-1H-imidazole-2-carboxamide formate] | 446
13 | Cn1c(-c2cn(C3CC3(F)F)nc2C(F)(F)F)cnc1C(=O)Nc1ccc(C(=O)NC2CC3CN(C(=O)N[C@H]4CNC[C@@H]4O)CC32)c(Cl)c1 (mixture of isomers) [Example 347, rac-6-(2-chloro-4-(5-(1-(2,2-difluorocyclopropyl)-3-(trifluoromethyl)-1H-pyrazol-4-yl)-1-methyl-1H-imidazole-2-carboxamido)benzamido)-N-((3S,4S)-4-hydroxypyrrolidin-3-yl)-3-azabicyclo[3.2.0]heptane-3-carboxamide formate] | 446

Same assay, conditions: Acinetobacter baumannii, ATCC17961, read-out: ATCC 17961 IC90, Acinetobacter baumannii ATCC 17961, Iso-Sensitest broth

Row | SMILES | IC90 [nM]
14 | Cn1c(-c2cn(CC3CC3(F)F)nc2C(F)(F)F)cnc1C(=O)Nc1ccc(C(=O)N2CCN(C(=O)N[C@H]3C[C@@H](N)C3)CC2)c(Cl)c1 (mixture of isomers) [Example 254, rac-N-((1s,3s)-3-aminocyclobutyl)-4-(2-chloro-4-(5-(1-((2,2-difluorocyclopropyl)methyl)-3-(trifluoromethyl)-1H-pyrazol-4-yl)-1-methyl-1H-imidazole-2-carboxamido)benzoyl)piperazine-1-carboxamide hydrochloride] | 311
